SMILES strings stand for the structures.

Assay [1] addresses T1, PIM-1 (Homo sapiens, UniProt P11309).
T1 construct: made in house
Briefly: Protein PIM kinase assay (ADP Hunter Plus). The assay is classed as biochemical. The note with it: 100 μM ATP, 100 μM PIMtide. The procedure:
(§1) PIM kinase activities were measured by using the commercial ADP Hunter™ Plus assay (DiscoveRx Ref. #33-016), a homogeneous assay measuring ADP accumulation, as a universal product of kinase activity. PIM-1 and PIM-2 proteins were obtained by purification as it is described by Martinez-Gonzalez et. al. Eur. J. Med Chem. 2019, 168, 87-109 and PIM-3 was acquired from Millipore (Cat #14-738). The assay was done following general manufacturer recommendations and adapting protein and substrates concentrations to optimal conditions. Kinase buffer was 15 mM HEPES, pH 7.4, 20 mM NaCl, 1 mM EGTA, 0.02% Tween-20, 10 mM MgCl2 and 0.1 mg/mL LBGG (bovine y-globulin). All PIM kinases assays were done at 100 μM PIM tide (ARKRRRHPSGPPTA), as peptide substrate, and 100 μM ATP. Protein concentration was 50, 350 and 200 pg/μl for PIM-1, 2 and 3, respectively. In order to calculate the IC50 of described compounds, serial 1:3 dilutions were prepared and the reaction started by addition of ATP. Incubation was done for 1 h at 25° C. Reagents A and B (DiscoveRx) were sequentially added to the wells and plates were incubated for 30 min at 37° C. Fluorescence counts were read in a Victor instrument (Perkin Elmer) with the recommended settings (544 and 580 nm as excitation and emission wavelengths, respectively). Values were plot against inhibitor concentration and fit to a sigmoid dose-response curve using Activity Base software from IDBS.

The target of assay [2] is T2, PIM-3 (Homo sapiens, UniProt Q86V86).
T2 construct: purchased Millipore 14-738
Briefly: Protein PIM kinase assay (ADP Hunter Plus). Format: biochemical. As to conditions: 100 μM ATP, 100 μM PIMtide. The protocol:
as §1

For assay [3], the target named is T3, PIM-2 (Homo sapiens, UniProt Q9P1W9).
T3 construct: made in house
T3 sequence (Q9P1W9 whole entry): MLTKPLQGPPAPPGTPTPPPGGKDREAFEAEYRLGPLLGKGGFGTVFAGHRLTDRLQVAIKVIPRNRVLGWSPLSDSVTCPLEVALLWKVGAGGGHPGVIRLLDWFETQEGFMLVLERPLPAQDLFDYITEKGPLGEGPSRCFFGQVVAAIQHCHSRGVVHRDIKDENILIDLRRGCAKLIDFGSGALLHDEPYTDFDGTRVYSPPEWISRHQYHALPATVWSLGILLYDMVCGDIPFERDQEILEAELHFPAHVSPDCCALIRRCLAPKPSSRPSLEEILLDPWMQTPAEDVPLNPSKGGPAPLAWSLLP
Put plainly: Protein PIM kinase assay (ADP Hunter Plus). Format: biochemical. The note with it: 100 μM ATP, 100 μM PIMtide. The procedure: as §1

Assay [4] has as its system Naïve CD4+ T cells, Th17 cells. Put plainly: CD4+ T cell differentiation under Th17 conditions (IL-17A, ELISA and FACS). Format: cell-based, mice. The protocol:
Naïve CD4^+ T cells were purified from mice spleens and lymph nodes using positive selection by magnetic beads (CD4 L3T4 Kit, Miltenyi Biotec, UK). The purified T cells were activated by plate-bound αCD3ε (1 μg/ml; 2C11) and αCD28 (3 μg/ml; 37.51) in the presence or absence of the compound of Example 1 or Cyclosporin A (Sigma Aldrich), and cultured for 72 hrs under Th1 conditions (IL-12 [20 ng/ml]+αIL-4 (11B1) [10 μg/ml]), 72 hrs under Th17 conditions (αIFNγ [10 μg/ml]+αIL-4 [5 μg/ml]+IL-6 [[…]]+TGFβ(5 ng/ml)), and 96 hrs under iTreg conditions (TGFβ (5 ng/ml)) at 37° C.
ELISA kits for mouse IFNγ and IL-17a were purchased from eBioscience (Thermo Fisher, UK) and performed in accordance to manufacturer's instructions using Corning® High Binding ELISA plates (Merck, CLS9018). All ELISAs were analysed using a Synergy MX microplate reader (BioTek).
Intracellular protein expression was evaluated by first restimulating the cells with phorbol-12-myristate 13-acetate (PMA)(10 ng/ml) (Sigma Aldrich), ionomycin (1 μg/ml) (Sigma Aldrich) and Brefeldin A (5 μg/ml) (eBioscience) for 4-6 hours at 37° C. […] Fc block (93) and all fluorescence dye labelled antibodies used αCD4 (GK1.5), αIFNγ (XMG1.2), αIL-17a (17B7), αFOXP3 (NRRF-30; FJK-16S) were purchased from eBiosciences (Thermo Fisher, UK). […]
For orientation: In an ELISA, binding on a coated surface is turned into a signal by an enzyme label.

T1 sequence (P11309 whole entry): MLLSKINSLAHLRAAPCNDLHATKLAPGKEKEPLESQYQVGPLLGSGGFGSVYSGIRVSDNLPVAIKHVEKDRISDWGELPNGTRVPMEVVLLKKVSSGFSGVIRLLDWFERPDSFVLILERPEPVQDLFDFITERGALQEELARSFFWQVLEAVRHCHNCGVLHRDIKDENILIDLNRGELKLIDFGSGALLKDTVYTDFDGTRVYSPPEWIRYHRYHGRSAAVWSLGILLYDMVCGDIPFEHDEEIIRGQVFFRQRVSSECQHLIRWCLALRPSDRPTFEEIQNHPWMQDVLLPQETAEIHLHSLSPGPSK

A word on the IC50: it is the point on the concentration scale where inhibition reaches its midpoint. Take `CN1CCOc2c1c(N[C@H]1CC[C@@](C)(O)CC1)nn1c(-c3cccc(OC(F)(F)F)c3)nnc21` [Example 1, 1-Methyl-4-[6-methyl-3-(3-trifluoromethoxy-phenyl)-7,8-dihydro-6H-9-oxa-1,2,3a,4,6-pentaaza-cyclopenta[a]naphthalen-5-ylamino]-cyclohexanol]: the IC50 lay in the range of 1 to 5 nM in assay [1], 5 to 10 nM in assay [2] and 5 to 10 nM in assay [3]. In addition, the “pro-inflammatory Th17 responses” value in assay [4] (12.5 nM, 72 hrs Th17 conditions) is listed as “significant suppression”. Besides, the “Differentiation of Th17 cells in vitro as determined by the secretion of IL-17A” value in assay [4] (at a range of concentrations, ELISA and FACS) is on record as “inhibited”.

The values above are taken from patent US20250042918A1, “COMPOUNDS” (Fundación Del Sector Públlco Estatal Centro Nacional De …, priority 2021, published 2025).
